Experimental data as given in ChEMBL document CHEMBL4507317, “Data for DCP probe BAY-899” (2021).

Assays:
[1] = test system: Tyrosine-protein kinase ABL1 (Homo sapiens), P00519 [H396P]; conditions: Compound concentration 1000.0 nM
[2] = target: Activin receptor type-1 (Homo sapiens) (UniProt Q04771); conditions: Compound concentration 1000.0 nM
[3] = target: Activin receptor type-2A (Homo sapiens) (UniProt P27037); conditions: Compound concentration 1000.0 nM
[4] = target: Bone morphogenetic protein receptor type-1A (Homo sapiens) (UniProt P36894); conditions: Compound concentration 1000.0 nM
[5] = target: Calcium/calmodulin-dependent protein kinase type II subunit gamma (Homo sapiens) (UniProt Q13555); conditions: Compound concentration 1000.0 nM
[6] = target: Cyclin-dependent kinase 4 (Homo sapiens) (UniProt P11802); conditions: Compound concentration 1000.0 nM
[7] = target: Megakaryocyte-associated tyrosine-protein kinase (Homo sapiens) (UniProt P42679); conditions: Compound concentration 1000.0 nM
[8] = target: Serine/threonine-protein kinase DCLK3 (Homo sapiens) (UniProt Q9C098); conditions: Compound concentration 1000.0 nM
[9] = target: Dual specificity tyrosine-phosphorylation-regulated kinase 1B (Homo sapiens) (UniProt Q9Y463); conditions: Compound concentration 1000.0 nM
[10] = test system: Epidermal growth factor receptor (Homo sapiens), P00533 [L858R,T790M]; conditions: Compound concentration 1000.0 nM
[11] = target: Ephrin type-A receptor 2 (Homo sapiens) (UniProt P29317); conditions: Compound concentration 1000.0 nM
[12] = target: Ephrin type-B receptor 4 (Homo sapiens) (UniProt P54760); conditions: Compound concentration 1000.0 nM
[13] = target: Vascular endothelial growth factor receptor 1 (Homo sapiens) (UniProt P17948); conditions: Compound concentration 1000.0 nM
[14] = target: Receptor-type tyrosine-protein kinase FLT3 (Homo sapiens) (UniProt P36888); conditions: Compound concentration 1000.0 nM
[15] = target: Tyrosine-protein kinase FRK (Homo sapiens) (UniProt P42685); conditions: Compound concentration 1000.0 nM
[16] = target: Inhibitor of nuclear factor kappa-B kinase subunit beta (Homo sapiens) (UniProt O14920); conditions: Compound concentration 1000.0 nM
[17] = target: Tyrosine-protein kinase JAK2 (Homo sapiens) (UniProt O60674); conditions: Compound concentration 1000.0 nM
[18] = target: Mitogen-activated protein kinase 8 (Homo sapiens) (UniProt P45983); conditions: Compound concentration 1000.0 nM
[19] = test system: Mast/stem cell growth factor receptor Kit (Homo sapiens), P10721 [D816V]; conditions: Compound concentration 1000.0 nM
[20] = target: Leucine-rich repeat serine/threonine-protein kinase 2 (Homo sapiens) (UniProt Q5S007); conditions: Compound concentration 1000.0 nM
[21] = target: Mitogen-activated protein kinase kinase kinase 13 (Homo sapiens) (UniProt O43283); conditions: Compound concentration 1000.0 nM
[22] = target: Dual specificity mitogen-activated protein kinase kinase 3 (Homo sapiens) (UniProt P46734); conditions: Compound concentration 1000.0 nM
[23] = target: MAP kinase-interacting serine/threonine-protein kinase 1 (Homo sapiens) (UniProt Q9BUB5); conditions: Compound concentration 1000.0 nM
[24] = target: Mitogen-activated protein kinase kinase kinase 9 (Homo sapiens) (UniProt P80192); conditions: Compound concentration 1000.0 nM
[25] = target: Muscle, skeletal receptor tyrosine-protein kinase (Homo sapiens) (UniProt O15146); conditions: Compound concentration 1000.0 nM
[26] = target: Serine/threonine-protein kinase OSR1 (Homo sapiens) (UniProt O95747); conditions: Compound concentration 1000.0 nM
[27] = target: Serine/threonine-protein kinase PAK 2 (Homo sapiens) (UniProt Q13177); conditions: Compound concentration 1000.0 nM
[28] = target: Cyclin-dependent kinase 16 (Homo sapiens) (UniProt Q00536); conditions: Compound concentration 1000.0 nM
[29] = test system: Phosphatidylinositol 4,5-bisphosphate 3-kinase catalytic subunit alpha isoform (Homo sapiens), P42336 [E542K]; conditions: Compound concentration 1000.0 nM
[30] = test system: Phosphatidylinositol 4,5-bisphosphate 3-kinase catalytic subunit alpha isoform (Homo sapiens), P42336 [E545A]; conditions: Compound concentration 1000.0 nM
[31] = test system: Phosphatidylinositol 4,5-bisphosphate 3-kinase catalytic subunit alpha isoform (Homo sapiens), P42336 [H1047L]; conditions: Compound concentration 1000.0 nM
[32] = target: Serine/threonine-protein kinase pim-3 (Homo sapiens) (UniProt Q86V86); conditions: Compound concentration 1000.0 nM
[33] = target: Membrane-associated tyrosine- and threonine-specific cdc2-inhibitory kinase (Homo sapiens) (UniProt Q99640); conditions: Compound concentration 1000.0 nM
[34] = target: Protein kinase C epsilon type (Homo sapiens) (UniProt Q02156); conditions: Compound concentration 1000.0 nM
[35] = target: Protein kinase C theta type (Homo sapiens) (UniProt Q04759); conditions: Compound concentration 1000.0 nM
[36] = target: Serine/threonine-protein kinase D1 (Homo sapiens) (UniProt Q15139); conditions: Compound concentration 1000.0 nM
[37] = target: cGMP-dependent protein kinase 2 (Homo sapiens) (UniProt Q13237); conditions: Compound concentration 1000.0 nM
[38] = target: Ribosomal protein S6 kinase beta-1 (Homo sapiens) (UniProt P23443); conditions: Compound concentration 1000.0 nM
[39] = target: Proto-oncogene tyrosine-protein kinase Src (Homo sapiens) (UniProt P12931); conditions: Compound concentration 1000.0 nM
[40] = target: STE20/SPS1-related proline-alanine-rich protein kinase (Homo sapiens) (UniProt Q9UEW8); conditions: Compound concentration 1000.0 nM
[41] = target: Serine/threonine-protein kinase ULK2 (Homo sapiens) (UniProt Q8IYT8); conditions: Compound concentration 1000.0 nM
[42] = target: Mitogen-activated protein kinase kinase kinase 19 (Homo sapiens) (UniProt Q56UN5); conditions: Compound concentration 1000.0 nM
[43] = target: Kappa-type opioid receptor (Homo sapiens, UniProt P41145); conditions: Compound concentration 10.0 uM
[44] = target: Alpha-2C adrenergic receptor (Homo sapiens) (UniProt P18825); conditions: Compound concentration 10.0 uM
[45] = target: Beta-1 adrenergic receptor (Homo sapiens) (UniProt P08588); conditions: Compound concentration 10.0 uM

Sequence of Tyrosine-protein kinase JAK2 (Homo sapiens) (O60674 whole entry): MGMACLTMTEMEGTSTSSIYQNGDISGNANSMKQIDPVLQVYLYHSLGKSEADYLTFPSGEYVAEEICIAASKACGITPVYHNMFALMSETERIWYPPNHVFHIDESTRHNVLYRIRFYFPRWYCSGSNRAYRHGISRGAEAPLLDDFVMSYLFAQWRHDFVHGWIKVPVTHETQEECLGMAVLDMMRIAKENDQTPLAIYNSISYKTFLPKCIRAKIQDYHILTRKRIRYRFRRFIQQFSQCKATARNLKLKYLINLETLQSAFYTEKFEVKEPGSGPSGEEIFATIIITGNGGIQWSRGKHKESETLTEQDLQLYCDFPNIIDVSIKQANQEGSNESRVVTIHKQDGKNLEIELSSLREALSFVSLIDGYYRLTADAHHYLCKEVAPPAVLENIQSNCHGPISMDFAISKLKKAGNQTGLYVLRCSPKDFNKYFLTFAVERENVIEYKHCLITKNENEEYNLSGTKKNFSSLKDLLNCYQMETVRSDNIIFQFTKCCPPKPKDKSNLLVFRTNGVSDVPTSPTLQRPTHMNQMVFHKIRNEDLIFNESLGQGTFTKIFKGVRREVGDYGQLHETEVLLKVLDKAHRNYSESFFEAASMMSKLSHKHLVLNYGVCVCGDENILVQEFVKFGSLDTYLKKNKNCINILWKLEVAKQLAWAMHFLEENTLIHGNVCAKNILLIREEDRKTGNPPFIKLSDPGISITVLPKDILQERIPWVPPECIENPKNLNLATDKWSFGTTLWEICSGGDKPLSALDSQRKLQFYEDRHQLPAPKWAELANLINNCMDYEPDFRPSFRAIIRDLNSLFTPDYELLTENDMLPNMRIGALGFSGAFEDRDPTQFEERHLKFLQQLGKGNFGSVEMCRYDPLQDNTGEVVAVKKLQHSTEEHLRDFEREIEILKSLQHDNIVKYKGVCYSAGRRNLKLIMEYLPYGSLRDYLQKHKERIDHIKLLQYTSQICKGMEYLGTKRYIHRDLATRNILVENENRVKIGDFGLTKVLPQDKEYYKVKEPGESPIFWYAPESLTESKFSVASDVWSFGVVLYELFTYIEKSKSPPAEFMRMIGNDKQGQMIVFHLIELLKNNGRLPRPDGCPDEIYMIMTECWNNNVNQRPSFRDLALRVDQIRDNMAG
Sequence of Inhibitor of nuclear factor kappa-B kinase subunit beta (Homo sapiens) (O14920 whole entry): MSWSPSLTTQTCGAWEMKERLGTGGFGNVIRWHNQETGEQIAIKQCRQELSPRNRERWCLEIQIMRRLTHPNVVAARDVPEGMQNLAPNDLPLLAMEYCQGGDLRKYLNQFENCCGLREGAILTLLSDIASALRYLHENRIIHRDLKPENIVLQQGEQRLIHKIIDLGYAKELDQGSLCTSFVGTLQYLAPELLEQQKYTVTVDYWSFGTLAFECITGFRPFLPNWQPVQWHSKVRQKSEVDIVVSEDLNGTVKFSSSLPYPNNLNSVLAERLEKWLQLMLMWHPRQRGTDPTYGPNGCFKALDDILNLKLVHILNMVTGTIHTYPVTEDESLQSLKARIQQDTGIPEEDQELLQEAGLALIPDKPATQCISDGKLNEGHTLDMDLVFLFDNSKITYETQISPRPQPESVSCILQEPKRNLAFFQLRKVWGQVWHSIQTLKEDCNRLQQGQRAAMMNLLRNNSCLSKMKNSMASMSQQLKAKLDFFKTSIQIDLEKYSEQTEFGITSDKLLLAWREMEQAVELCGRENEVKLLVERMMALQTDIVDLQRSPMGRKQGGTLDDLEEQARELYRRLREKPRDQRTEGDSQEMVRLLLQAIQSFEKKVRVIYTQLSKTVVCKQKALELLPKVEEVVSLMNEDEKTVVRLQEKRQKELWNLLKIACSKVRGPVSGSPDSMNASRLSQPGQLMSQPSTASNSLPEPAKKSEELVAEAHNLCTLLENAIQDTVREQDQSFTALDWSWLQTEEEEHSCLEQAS
Sequence of Protein kinase C epsilon type (Homo sapiens) (Q02156 whole entry): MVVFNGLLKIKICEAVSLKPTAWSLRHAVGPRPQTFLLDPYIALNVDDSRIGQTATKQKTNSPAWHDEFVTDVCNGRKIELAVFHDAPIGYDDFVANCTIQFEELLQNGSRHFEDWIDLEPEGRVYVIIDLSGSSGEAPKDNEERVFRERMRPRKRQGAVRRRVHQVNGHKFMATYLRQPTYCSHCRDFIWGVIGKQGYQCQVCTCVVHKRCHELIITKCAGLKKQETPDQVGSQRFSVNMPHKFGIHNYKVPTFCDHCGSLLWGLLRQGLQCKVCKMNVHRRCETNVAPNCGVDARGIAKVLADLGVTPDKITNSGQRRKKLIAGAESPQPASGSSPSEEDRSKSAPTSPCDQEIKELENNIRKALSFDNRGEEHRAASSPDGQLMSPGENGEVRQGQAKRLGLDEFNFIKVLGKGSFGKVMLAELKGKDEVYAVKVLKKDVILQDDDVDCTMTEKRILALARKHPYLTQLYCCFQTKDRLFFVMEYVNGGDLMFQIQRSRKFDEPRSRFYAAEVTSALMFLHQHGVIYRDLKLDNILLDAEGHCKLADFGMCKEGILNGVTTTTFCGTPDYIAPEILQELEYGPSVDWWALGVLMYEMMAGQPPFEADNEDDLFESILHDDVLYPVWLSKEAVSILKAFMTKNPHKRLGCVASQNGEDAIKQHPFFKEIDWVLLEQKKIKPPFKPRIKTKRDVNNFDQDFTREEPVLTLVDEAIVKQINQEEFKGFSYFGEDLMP
Sequence of Membrane-associated tyrosine- and threonine-specific cdc2-inhibitory kinase (Homo sapiens) (Q99640 whole entry): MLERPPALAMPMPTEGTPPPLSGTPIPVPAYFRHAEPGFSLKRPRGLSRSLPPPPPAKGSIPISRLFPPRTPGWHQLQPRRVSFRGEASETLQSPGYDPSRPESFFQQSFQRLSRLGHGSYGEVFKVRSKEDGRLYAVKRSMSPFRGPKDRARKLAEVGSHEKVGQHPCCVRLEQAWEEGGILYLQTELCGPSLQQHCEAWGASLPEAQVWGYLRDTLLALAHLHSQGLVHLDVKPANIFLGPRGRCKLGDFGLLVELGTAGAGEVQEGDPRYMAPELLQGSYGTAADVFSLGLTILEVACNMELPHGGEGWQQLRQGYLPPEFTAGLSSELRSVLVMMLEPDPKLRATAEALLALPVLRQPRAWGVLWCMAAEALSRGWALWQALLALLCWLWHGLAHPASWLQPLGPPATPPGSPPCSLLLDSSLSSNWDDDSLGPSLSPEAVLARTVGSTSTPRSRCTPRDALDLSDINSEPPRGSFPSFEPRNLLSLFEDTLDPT
Sequence of Alpha-2C adrenergic receptor (Homo sapiens) (P18825 whole entry): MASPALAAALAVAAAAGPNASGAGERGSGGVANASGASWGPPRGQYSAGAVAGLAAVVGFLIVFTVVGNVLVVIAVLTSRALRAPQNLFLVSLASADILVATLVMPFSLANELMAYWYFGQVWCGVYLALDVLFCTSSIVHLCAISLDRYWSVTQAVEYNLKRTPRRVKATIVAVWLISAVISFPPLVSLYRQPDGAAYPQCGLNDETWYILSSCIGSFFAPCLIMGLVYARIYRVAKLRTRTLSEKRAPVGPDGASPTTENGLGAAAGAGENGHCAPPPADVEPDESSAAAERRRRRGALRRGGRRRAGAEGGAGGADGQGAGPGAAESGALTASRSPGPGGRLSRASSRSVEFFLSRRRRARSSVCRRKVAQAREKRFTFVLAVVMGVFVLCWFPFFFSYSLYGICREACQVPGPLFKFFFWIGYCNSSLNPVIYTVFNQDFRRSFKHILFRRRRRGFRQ
Sequence of Calcium/calmodulin-dependent protein kinase type II subunit gamma (Homo sapiens) (Q13555 whole entry): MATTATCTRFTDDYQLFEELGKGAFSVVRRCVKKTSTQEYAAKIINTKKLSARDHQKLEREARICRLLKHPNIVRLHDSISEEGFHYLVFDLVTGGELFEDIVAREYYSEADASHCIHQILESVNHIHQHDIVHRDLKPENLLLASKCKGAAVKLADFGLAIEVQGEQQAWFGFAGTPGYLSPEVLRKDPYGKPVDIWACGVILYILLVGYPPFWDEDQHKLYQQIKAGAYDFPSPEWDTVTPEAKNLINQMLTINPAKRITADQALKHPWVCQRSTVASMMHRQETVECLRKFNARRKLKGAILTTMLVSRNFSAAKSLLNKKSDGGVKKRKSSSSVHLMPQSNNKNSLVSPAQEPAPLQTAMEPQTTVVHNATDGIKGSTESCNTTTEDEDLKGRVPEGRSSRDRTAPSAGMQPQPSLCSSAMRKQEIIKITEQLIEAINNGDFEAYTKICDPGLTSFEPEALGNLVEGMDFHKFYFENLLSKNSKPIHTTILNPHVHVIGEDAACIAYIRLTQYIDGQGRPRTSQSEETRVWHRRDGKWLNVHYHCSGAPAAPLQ
Sequence of Dual specificity tyrosine-phosphorylation-regulated kinase 1B (Homo sapiens) (Q9Y463 whole entry, looked up): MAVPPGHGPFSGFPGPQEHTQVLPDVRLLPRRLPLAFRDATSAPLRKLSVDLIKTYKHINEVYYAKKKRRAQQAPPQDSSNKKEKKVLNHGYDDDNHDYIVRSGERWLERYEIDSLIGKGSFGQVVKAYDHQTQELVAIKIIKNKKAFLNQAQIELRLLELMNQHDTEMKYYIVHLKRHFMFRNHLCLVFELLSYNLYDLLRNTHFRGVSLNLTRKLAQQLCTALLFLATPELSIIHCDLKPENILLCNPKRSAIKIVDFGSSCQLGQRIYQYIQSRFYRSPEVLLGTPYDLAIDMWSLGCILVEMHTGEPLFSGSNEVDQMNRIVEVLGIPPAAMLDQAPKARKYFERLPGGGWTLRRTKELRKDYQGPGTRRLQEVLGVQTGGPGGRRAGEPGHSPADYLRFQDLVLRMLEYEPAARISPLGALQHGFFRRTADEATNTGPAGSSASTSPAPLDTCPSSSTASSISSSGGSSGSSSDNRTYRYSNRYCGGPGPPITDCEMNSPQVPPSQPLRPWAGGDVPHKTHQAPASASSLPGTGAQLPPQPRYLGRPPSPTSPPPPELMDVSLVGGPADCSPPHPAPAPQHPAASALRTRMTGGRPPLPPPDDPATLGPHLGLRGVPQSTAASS

In the case of `O=C(Nc1ccc(Oc2ccc(F)cc2)cc1)N1CCc2ncccc2[C@H]1c1ccc(F)cc1` [BAY-897], the residual activity [1] is reported as 92%, the residual activity [2] is reported as 96% and the residual activity [3] is reported as 100%. The residual activity [4] was 100%, the residual activity [5] was 96% and the residual activity [6] was 96%. For the same compound, the residual activity [7] was 90%, the residual activity [8] was 93% and the residual activity [9] was 88%. It also gave a residual activity [10] of 71%, a residual activity [11] of 100% and a residual activity [12] of 100%. It also gave a residual activity [13] of 100%, a residual activity [14] of 77% and a residual activity [15] of 93%. For the same compound, the residual activity [16] was 100%, the residual activity [17] was 100% and the residual activity [18] was 91%. It also gave a residual activity [19] of 100%, a residual activity [20] of 76% and a residual activity [21] of 98%. For the same compound, the residual activity [22] was 88%, the residual activity [23] was 95% and the residual activity [24] was 100%. For the same compound, the residual activity [25] was 92%, the residual activity [26] was 90% and the residual activity [27] was 52%. For the same compound, the residual activity [28] was 65%, the residual activity [29] was 71% and the residual activity [30] was 100%. For the same compound, the residual activity [31] was 85%, the residual activity [32] was 79% and the residual activity [33] was 63%. It also gave a residual activity [34] of 100%, a residual activity [35] of 95% and a residual activity [36] of 94%. For the same compound, the residual activity [37] was 100%, the residual activity [38] was 100% and the residual activity [39] was 91%. The residual activity [40] was 82%, the residual activity [41] was 98% and the residual activity [42] was 88%. It also gave an inhibition [43] of 79.3%, an inhibition [44] of 8.47% and an inhibition [45] of -7.28%.
`O=C(Nc1cnc(Oc2ccc(F)cc2)nc1)N1CCc2ncccc2[C@@H]1c1ccc(F)cc1` [BAY-899] showed a residual activity [1] of 100%, a residual activity [2] of 97% and a residual activity [3] of 83%. It also gave a residual activity [4] of 100%, a residual activity [5] of 80% and a residual activity [6] of 100%. For the same compound, the residual activity [7] was 80%, the residual activity [8] was 96% and the residual activity [9] was 78%. It also gave a residual activity [10] of 70%, a residual activity [11] of 99% and a residual activity [12] of 100%. It also gave a residual activity [13] of 88%, a residual activity [14] of 84% and a residual activity [15] of 98%. The residual activity [16] was 100%, the residual activity [17] was 84% and the residual activity [18] was 83%. For the same compound, the residual activity [19] was 98%, the residual activity [20] was 83% and the residual activity [21] was 88%. For the same compound, the residual activity [22] was 76%, the residual activity [23] was 95% and the residual activity [24] was 92%. The residual activity [25] was 86%, the residual activity [26] was 93% and the residual activity [27] was 59%. It also gave a residual activity [28] of 75%, a residual activity [29] of 81% and a residual activity [30] of 98%. The residual activity [31] was 92%, the residual activity [32] was 82% and the residual activity [33] was 80%. For the same compound, the residual activity [34] was 100%, the residual activity [35] was 94% and the residual activity [36] was 100%. The residual activity [37] was 100%, the residual activity [38] was 89% and the residual activity [39] was 93%. The residual activity [40] was 77%, the residual activity [41] was 93% and the residual activity [42] was 81%. It also gave an inhibition [43] of 56.3%, an inhibition [44] of 8.55% and an inhibition [45] of 11.3%.
